The values that follow come from patent US10556914B2, “Substituted isoxazolopyridazinones and isothiazolopyridazinones and methods of use” (AbbVie Inc., priority 2015, dated 2020).

Sequence of GABA-B receptor (Q9Z0U4 17-960): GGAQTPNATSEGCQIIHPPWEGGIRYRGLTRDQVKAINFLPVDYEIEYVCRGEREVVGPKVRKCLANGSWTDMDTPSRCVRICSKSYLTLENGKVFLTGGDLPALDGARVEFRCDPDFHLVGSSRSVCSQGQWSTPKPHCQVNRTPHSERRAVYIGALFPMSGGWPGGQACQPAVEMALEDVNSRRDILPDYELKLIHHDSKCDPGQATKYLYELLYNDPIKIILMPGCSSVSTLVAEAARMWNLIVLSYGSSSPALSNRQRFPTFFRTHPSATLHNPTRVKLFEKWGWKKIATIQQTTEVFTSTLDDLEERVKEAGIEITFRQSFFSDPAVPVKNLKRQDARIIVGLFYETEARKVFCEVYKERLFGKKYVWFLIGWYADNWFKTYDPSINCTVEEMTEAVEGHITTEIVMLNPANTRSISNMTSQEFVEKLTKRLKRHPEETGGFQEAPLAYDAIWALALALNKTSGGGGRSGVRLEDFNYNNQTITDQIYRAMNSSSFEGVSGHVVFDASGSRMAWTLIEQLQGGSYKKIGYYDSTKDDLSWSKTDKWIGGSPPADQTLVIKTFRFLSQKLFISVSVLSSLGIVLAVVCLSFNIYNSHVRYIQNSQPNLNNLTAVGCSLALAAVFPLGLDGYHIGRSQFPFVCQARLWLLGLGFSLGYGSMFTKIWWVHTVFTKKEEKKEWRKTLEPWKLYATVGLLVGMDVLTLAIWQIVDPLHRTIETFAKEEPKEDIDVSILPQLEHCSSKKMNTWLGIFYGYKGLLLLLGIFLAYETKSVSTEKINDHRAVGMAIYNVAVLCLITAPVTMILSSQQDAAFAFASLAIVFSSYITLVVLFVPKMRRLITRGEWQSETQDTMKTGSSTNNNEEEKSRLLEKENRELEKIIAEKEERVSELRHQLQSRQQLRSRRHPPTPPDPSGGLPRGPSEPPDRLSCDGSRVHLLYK
Sequence of GABA-B receptor (O88871 41-940): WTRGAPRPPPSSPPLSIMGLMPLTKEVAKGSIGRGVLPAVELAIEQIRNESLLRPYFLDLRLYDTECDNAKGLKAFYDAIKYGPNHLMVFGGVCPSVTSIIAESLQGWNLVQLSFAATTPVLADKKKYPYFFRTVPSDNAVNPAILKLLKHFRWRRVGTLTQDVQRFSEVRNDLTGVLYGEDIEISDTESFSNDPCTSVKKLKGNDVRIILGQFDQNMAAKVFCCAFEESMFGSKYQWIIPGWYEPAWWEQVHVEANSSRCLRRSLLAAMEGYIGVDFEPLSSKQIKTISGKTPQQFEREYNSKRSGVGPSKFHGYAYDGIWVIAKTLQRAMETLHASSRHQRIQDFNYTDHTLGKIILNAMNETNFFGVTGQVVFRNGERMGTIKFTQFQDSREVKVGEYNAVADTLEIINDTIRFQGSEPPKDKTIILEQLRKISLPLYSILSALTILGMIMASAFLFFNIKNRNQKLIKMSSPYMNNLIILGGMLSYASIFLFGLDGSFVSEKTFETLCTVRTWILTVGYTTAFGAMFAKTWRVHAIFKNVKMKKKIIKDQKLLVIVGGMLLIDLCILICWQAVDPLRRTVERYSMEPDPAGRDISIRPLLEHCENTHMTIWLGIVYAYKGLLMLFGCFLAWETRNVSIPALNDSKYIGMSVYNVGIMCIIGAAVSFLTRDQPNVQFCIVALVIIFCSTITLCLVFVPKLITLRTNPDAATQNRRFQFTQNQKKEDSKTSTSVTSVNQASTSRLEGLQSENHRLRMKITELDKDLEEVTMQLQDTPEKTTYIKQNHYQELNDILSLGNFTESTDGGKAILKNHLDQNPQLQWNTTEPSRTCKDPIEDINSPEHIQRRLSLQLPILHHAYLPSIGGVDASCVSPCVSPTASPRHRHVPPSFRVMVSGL

The target in this experiment is GABA-B receptor (Rattus norvegicus (Rat), UniProt O88871+Q9Z0U4). The experiment in a line: [35S]GTPgS Binding Assay (rat brain cortex membranes, native receptor). It counts as biochemical. Conditions: rat cortical membranes; in the presence of 1 μM GABA (EC25); basal binding 0%, maximal binding (1 mM GABA) 100%. How it is done:
Preparation of Rat Brain Membranes for Native Receptor Assays
Membranes from rat brain cortex were prepared as described in detail by Olpe et al. and stored at concentrations of 1.66 mg/mL protein at −80° C. until required. (Olpe, H.-R, et al. Eur J Pharmacol 1990; 187: 27-38).
[^35S]GTPgS Binding Assay
The samples were incubated at room temperature for 60 minutes on a shaker. The incubation was stopped by rapid vacuum filtration over glass-fiber filter plates (UniFilter-96 well, GF/B membrane plates, PerkinElmer) using a 96-well plate harvester (TOMTEK© Harvester). The UniFilter plate was washed five times with ice-cold wash buffer (50 mM Tris-HCl buffer, pH 7.7, 10 mM MgCl2, and 100 mM NaCl. After filtration the plate was dried for 90 minutes at 55° C. The plates were closed on the bottom with black sealing membranes, and liquid scintillation cocktail (35 μL, Betaplate Scint, PerkinElmer) was added to each well. After sealing the top of the plate, an additional incubation step of 90 minutes at room temperature followed before measuring the plate. The amount of membrane-bound [^35S]GTPgS was measured using a 96-well plate reader (Microbeta®, PerkinElmer). Nonspecific binding was measured in the presence of unlabeled 10 μM of GTPgS (Millipore) and without GABA. Basal binding was measured in the absence of 1 μM GABA, and maximal binding was measured in the presence of GABA using 1 mM GABA concentrations.
Data analysis. The concentration-response curves of compounds of the present disclosure in the presence of EC25 of GABA-B receptor agonist were generated using the GraphPad Prism® program (GraphPad Software, San Diego, Calif.). Data was normalized using basal binding as 0% and maximal binding as 100%. The curves were fitted by nonlinear regression allowing determination of EC50 values from sigmoidal dose-response curves. Each curve was performed using triplicate sample per date point and 10 concentrations.
As for “7-(4-fluorophenyl)-3-methyl-5-(pyridin-4-ylmethyl)[1,2]oxazolo[4,5-d]pyridazin-4(5H)-one [Example 74]”, the EC50 worked out at 3410 nM.

As for `Cc1nn([C@@H](C)c2ccc(Cl)cc2)c(=O)c2c(C)noc12` (single isomer, unassigned) [Example 31], the half-maximal effective concentration (EC50) worked out at 1810 nM.

As to `Cc1nn([C@H](C)c2ccc(Cl)cc2)c(=O)c2c(C)noc12` (single isomer, unassigned) [Example 58], the concentration giving a half-maximal response (EC50) is above 10000 nM.

With `CCc1nn([C@H](c2ccccc2)c2ccc(Cl)cc2)c(=O)c2c(CC)noc12` (single isomer, unassigned) [Example 75], the concentration giving a half-maximal response (EC50) amounted to 1760 nM.

As to `CCc1nn([C@@H](c2ccccc2)c2ccc(Cl)cc2)c(=O)c2c(CC)noc12` (single isomer, unassigned) [Example 89], the EC50 turned out to be 1390 nM.

With `COc1ccc(NC(C)=O)cc1-c1nn([C@@H](C)c2ccc(Cl)cc2)c(=O)c2c(C3CC3)noc12` [Example 1, N-(3-{5-[(1S)-1-(4-chlorophenyl)ethyl]-3-cyclopropyl-4-oxo-4,5-dihydro[1,2]oxazolo[4,5-d]pyridazin-7-yl}-4-methoxyphenyl)acetamide], the concentration for a half-maximal effect (EC50) turned out to be 51 nM.

As to `COc1ccc(-c2nn(Cc3ccc(Cl)cc3)c(=O)c3c(C)noc23)cc1` [Example 2, 5-(4-chlorobenzyl)-7-(4-methoxyphenyl)-3-methyl[1,2]oxazolo[4,5-d]pyridazin-4(5H)-one], the concentration giving a half-maximal response (EC50) was above 10000 nM.

Regarding `COc1ccc(NC(C)=O)cc1-c1nn([C@H](C)c2ccc(Cl)cc2)c(=O)c2c(C3CC3)noc12` [Example 3, N-(3-{5-[(1R)-1-(4-chlorophenyl)ethyl]-3-cyclopropyl-4-oxo-4,5-dihydro[1,2]oxazolo[4,5-d]pyridazin-7-yl}-4-methoxyphenyl)acetamide], the concentration giving a half-maximal response (EC50) is above 10000 nM.

`Cc1noc2c(-c3cc(F)nc(F)c3)nn(C(C)c3ccc(Cl)cc3)c(=O)c12` (centres unmarked) [Example 4, 5-[1-(4-chlorophenyl)ethyl]-7-(2,6-difluoropyridin-4-yl)-3-methyl[1,2]oxazolo[4,5-d]pyridazin-4(5H)-one]: the EC50 was determined as 1660 nM.

`Cc1noc2c(-c3cc(Cl)ccc3N)nn(C(C)c3ccc(Cl)cc3)c(=O)c12` (centres unmarked) [Example 6, 7-(2-amino-5-chlorophenyl)-5-[1-(4-chlorophenyl)ethyl]-3-methyl[1,2]oxazolo[4,5-d]pyridazin-4(5H)-one]: the EC50 was determined as 1960 nM.

As to `Cc1noc2c(-c3cccnc3Cl)nn(C(C)c3ccc(Cl)cc3)c(=O)c12` (centres unmarked) [Example 7, 5-[1-(4-chlorophenyl)ethyl]-7-(2-chloropyridin-3-yl)-3-methyl[1,2]oxazolo[4,5-d]pyridazin-4(5H)-one], the EC50 was 600 nM.

As for `CC(=O)Nc1cc(-c2nn(Cc3ccc(Cl)cc3)c(=O)c3c(C)noc23)ccc1F` [Example 8], the EC50 came to 2110 nM.

On to `COc1ccc(OC)c(-c2nn(CCc3ccc(Cl)cc3)c(=O)c3c(C)noc23)c1` [Example 10, 5-[2-(4-chlorophenyl)ethyl]-7-(2,5-dimethoxyphenyl)-3-methyl[1,2]oxazolo[4,5-d]pyridazin-4(5H)-one], for which the EC50 amounted to 1060 nM.

Turning to `Cc1noc2c(-c3cc(C(F)(F)F)ccc3N)nn(C(C)c3ccc(Cl)cc3)c(=O)c12` (centres unmarked) [Example 11, 7-[2-amino-5-(trifluoromethyl)phenyl]-5-[1-(4-chlorophenyl)ethyl]-3-methyl[1,2]oxazolo[4,5-d]pyridazin-4(5H)-one], the EC50 is above 10000 nM.

For the compound `Cc1noc2c(-c3ccc4cc[nH]c4c3)nn(C(C)c3ccc(Cl)cc3)c(=O)c12` (centres unmarked) [Example 12, 5-[1-(4-chlorophenyl)ethyl]-7-(1H-indol-6-yl)-3-methyl[1,2]oxazolo[4,5-d]pyridazin-4(5H)-one], the EC50 amounted to 347 nM.

On to `Cc1noc2c(-c3ccccc3N)nn(C(C)c3ccc(Cl)cc3)c(=O)c12` (centres unmarked) [Example 14, 7-(2-aminophenyl)-5-[1-(4-chlorophenyl)ethyl]-3-methyl[1,2]oxazolo[4,5-d]pyridazin-4(5H)-one], for which the EC50 amounted to 2130 nM.

Take `Cc1ccc(O)cc1-c1nn(C(C)c2ccc(Cl)cc2)c(=O)c2c(C)noc12` (centres unmarked) [Example 16, 5-[1-(4-chlorophenyl)ethyl]-7-(5-hydroxy-2-methylphenyl)-3-methyl[1,2]oxazolo[4,5-d]pyridazin-4(5H)-one]: the EC50 amounted to 222 nM.

In the case of `CC(=O)Nc1ccc(C)c(-c2nn(C(C)c3ccc(Cl)cc3)c(=O)c3c(C)noc23)c1` (centres unmarked) [Example 18, N-(3-{5-[1-(4-chlorophenyl)ethyl]-3-methyl-4-oxo-4,5-dihydro[1,2]oxazolo[4,5-d]pyridazin-7-yl}-4-methylphenyl)acetamide], the concentration for a half-maximal effect (EC50) is 389 nM.

On to `Cc1noc2c(-c3ccc(F)cc3)nn(Cc3ccc(C(F)(F)F)cc3)c(=O)c12` [Example 19, 7-(4-fluorophenyl)-3-methyl-5-[4-(trifluoromethyl)benzyl][1,2]oxazolo[4,5-d]pyridazin-4(5H)-one], for which the 50% effective concentration (EC50) amounted to 1580 nM.

Regarding `COc1ccc(OC)c(-c2nn(C(C)c3ccc(Cl)cc3)c(=O)c3c(C)noc23)c1` (centres unmarked) [Example 21, 5-[1-(4-chlorophenyl)ethyl]-7-(2,5-dimethoxyphenyl)-3-methyl[1,2]oxazolo[4,5-d]pyridazin-4(5H)-one], the EC50 is 229 nM.

On to `Cc1noc2c(-c3cncc(F)c3)nn(C(C)c3ccc(Cl)cc3)c(=O)c12` (centres unmarked) [Example 22, 5-[1-(4-chlorophenyl)ethyl]-7-(5-fluoropyridin-3-yl)-3-methyl[1,2]oxazolo[4,5-d]pyridazin-4(5H)-one], for which the concentration giving a half-maximal response (EC50) was found to be 2690 nM.

As for `Cc1noc2c(-c3cccc(F)c3)nn(Cc3ccc(Cl)cc3)c(=O)c12` [Example 23, 5-(4-chlorobenzyl)-7-(3-fluorophenyl)-3-methyl[1,2]oxazolo[4,5-d]pyridazin-4(5H)-one], the EC50 was above 10000 nM.

For `Cc1noc2c(-c3cccc(NS(C)(=O)=O)c3)nn(C(C)c3ccc(Cl)cc3)c(=O)c12` (centres unmarked) [Example 24, N-(3-{5-[1-(4-chlorophenyl)ethyl]-3-methyl-4-oxo-4,5-dihydro[1,2]oxazolo[4,5-d]pyridazin-7-yl}phenyl)methanesulfonamide], the concentration giving a half-maximal response (EC50) came to 1850 nM.

As to `COCc1noc2c(-c3cccc(NC(C)=O)c3)nn(Cc3ccc(Cl)cc3)c(=O)c12` [Example 27, N-{3-[5-(4-chlorobenzyl)-3-(methoxymethyl)-4-oxo-4,5-dihydro[1,2]oxazolo[4,5-d]pyridazin-7-yl]phenyl}acetamide], the concentration for a half-maximal effect (EC50) was 3200 nM.

As to `Cc1noc2c(-c3ccc(F)cc3)nn(Cc3ccc(Cl)c(C(F)(F)F)c3)c(=O)c12` [Example 28, 5-[4-chloro-3-(trifluoromethyl)benzyl]-7-(4-fluorophenyl)-3-methyl[1,2]oxazolo[4,5-d]pyridazin-4(5H)-one], the EC50 is 3470 nM.

As for `CC(=O)Nc1cccc(-c2nn([C@H](C)c3ccc(Cl)cc3)c(=O)c3c(C)noc23)c1` [Example 34, N-(3-{5-[(1R)-1-(4-chlorophenyl)ethyl]-3-methyl-4-oxo-4,5-dihydro[1,2]oxazolo[4,5-d]pyridazin-7-yl}phenyl)acetamide], the EC50 came to 4810 nM.

For the compound `CC(=O)Nc1ccc(C)c(-c2nn([C@H](C)c3ccc(C(F)(F)F)cc3)c(=O)c3c(C)noc23)c1` [Example 35, N-[4-methyl-3-(3-methyl-4-oxo-5-{(1R)-1-[4-(trifluoromethyl)phenyl]ethyl}-4,5-dihydro[1,2]oxazolo[4,5-d]pyridazin-7-yl)phenyl]acetamide], the EC50 stood at 562 nM.

Consider `CCc1noc2c(-c3cc(OC)ccc3OC)nn(Cc3ccc(Cl)cc3)c(=O)c12` [Example 36, 5-(4-chlorobenzyl)-7-(2,5-dimethoxyphenyl)-3-ethyl[1,2]oxazolo[4,5-d]pyridazin-4(5H)-one], for which the EC50 stood at 895 nM.

Regarding `COc1ccc(-c2nn(Cc3ccc(F)c(C(F)(F)F)c3)c(=O)c3c(C)noc23)c(OC)c1` [Example 37, 7-(2,4-dimethoxyphenyl)-5-[4-fluoro-3-(trifluoromethyl)benzyl]-3-methyl[1,2]oxazolo[4,5-d]pyridazin-4(5H)-one], the EC50 is 3670 nM.

For the compound `COc1ccc(C(=O)N(C)C)cc1-c1nn(C(C)c2ccc(Cl)cc2)c(=O)c2c(C)noc12` (centres unmarked) [Example 38], the EC50 is 643 nM.

As for `COc1ccc(NC(C)=O)cc1-c1nn(C(C)c2ccc(Cl)cc2)c(=O)c2c(C)noc12` (centres unmarked) [Example 39, N-(3-{5-[1-(4-chlorophenyl)ethy]-3-methyl-4-oxo-4,5-dihydro[1,2]oxazolo[4,5-d]pyridazin-7-yl}-4-methoxyphenyl)acetamide], the EC50 was 105 nM.

As to `COc1ccc(NC(C)=O)cc1-c1nn([C@H](C)c2ccc(Cl)cc2)c(=O)c2c(C)noc12` [Example 40, N-(3-{5-[(1R)-1-(4-chlorophenyl)ethyl]-3-methyl-4-oxo-4,5-dihydro[1,2]oxazolo[4,5-d]pyridazin-7-yl}-4-methoxyphenyl)acetamide], the EC50 was above 10000 nM.

Usually EC50 stands for the midpoint of the concentration-response curve.
